Source: patent US12697366B2, “Thermogenic compositions and methods” (Ohio State Innovation Foundation, priority 2016, dated 2026)

Legend:
DIO mice = assay: Study 3 (Example 2): EREG injected into epididymal iAb fat of DIO mice; format: in vivo, mouse
Experimental: 6-week old C57BL6/J male mice (WT) were fed a high fat diet (HF, 45% kcal from fat, D12451, Research Diet Inc., New Brunswick, NJ) for 30 days. Then mice were randomly assigned for • 1) a control group injected with 0.1 mL sterile phosphate buffered saline (PBS) into both epididymal iAb fat (n=7), and • 2) EREG-treated group injected with 20 ng EREG per epididymal iAb fat depot (n=7). Mice were injected with 0.1 mL sterile PBS, containing 200 ng EREG/mL. Mice were individually housed and pair fed when injection started. Mice were injected every other day for 2 weeks. Metabolic measurements were performed as described in 2.5. WAT were collected for protein, mRNA, and histology. Metabolic parameters in study 2.3 and 2.4 were measured by indirect calorimetry (CLAMS, Columbus Instruments, Columbus, OH) at ambient temperature (22° C.) with 12 h light/dark cycles. Animals were fed the same HF diet and water provided ad libitum. Mice were placed individually and allowed to acclimatize in the chambers for 12 h, and O2 consumption, CO2 production, energy expenditure, and locomotor activity were measured for 24 h. Then temperature was changed to 4° C. for 6 h. […] NanoString's nCounter analysis system performed direct detection of target molecules from a single sample using color-coded molecular barcodes, giving a digital quantification of the number of target molecules. A custom panel containing Ereg, thermogenic genes, and PPARα-target genes was designed and used for simultaneous quantification of 37 genes including housekeeping genes. All data were normalized to 3 housekeeping genes Gapdh, Pgk1, and Tubb quantified in the same samples using nSolver Software. Total mRNA (100 ng in 5 μl) was hybridized overnight with nCounter Reporter (20 μl) probes in hybridization buffer and in an excess of nCounter Capture probes (5 μL) at 65° C. for 16-20 h. The hybridization mixture containing target/probe complexes was allowed to bind to magnetic beads containing complementary sequences on the Capture Probe. After each target found a probe pair, excess probes were washed followed by sequential binding to sequences on the Reporter Probe. Biotinylated capture probe-bound samples were immobilized and recovered on a streptavidin-coated cartridge. The abundance of specific target molecules was then quantified using the nCounter Digital Analyzer. Individual fluorescent barcodes and target molecules present in each sample were recorded with a CCD camera by performing a high-density scan (600 fields of view). Images were processed internally into a digital format and were normalized using the NanoString nSolver software analysis tool. Counts were normalized for all target RNAs in all samples based on the positive control RNA to account for differences in hybridization efficiency and post-hybridization processing, purification, and immobilization of complexes. The average was normalized by background counts (the average of the eight negative control counts) for each sample. Subsequently, a normalization of mRNA content was performed based on Gapdh, Pgk1, and Tubb internal reference housekeeping genes. Plasma FFA and TG were measured in plasma samples from study 3, using kits from Wako Diagnostics (Mountain View, CA). Plasma samples were collected from mice in Study 3 and analyzed using a mouse leptin ELISA Kit (Alpco, Salem, NH) according to manufacturer's instruction. The absorbance (450 nm) was measured using Synergy H1 Hybrid Multi-Mode Microplate Reader. Insulin levels were measured in plasma from mice in Study 4 using an ultra-sensitive mouse insulin ELISA kit (Crystal Chem, Downers Grove, IL) according to manufacturer's instruction.

ob/ob mice = assay: Study 4 (Example 2): EREG injected into epididymal iAb fat of ob/ob mice; format: in vivo, mouse
Experimental: 6-week old Ob/Ob male mice, purchased from the Jackson laboratory (n=10), were fed a high fat diet (HF, 45% kcal from fat, D12451, Research Diet Inc., New Brunswick, NJ) for 30 days and then randomly assigned into two groups: • 1) a control group injected with 0.1 mL sterile PBS into both epididymal iAb fat (n=5), and • 2) EREG-treated group injected with 60 ng EREG per epididymal iAb fat depot (n=5). Mice were injected with 0.1 mL sterile PBS, containing 600 ng EREG/mL. These mice were pair fed and individually housed during injections. […] Metabolic measurements were performed as described in 2.5. WAT were collected for protein, mRNA, and histology. Metabolic parameters in study 2.3 and 2.4 were measured by indirect calorimetry (CLAMS, Columbus Instruments, Columbus, OH) at ambient temperature (22° C.) with 12 h light/dark cycles. Animals were fed the same HF diet and water provided ad libitum. Mice were placed individually and allowed to acclimatize in the chambers for 12 h, and O2 consumption, CO2 production, energy expenditure, and locomotor activity were measured for 24 h. Then temperature was changed to 4° C. for 6 h. […] GTT was performed in overnight fasted Ob/Ob mice (study 4, N=5 per group) by intraperitoneal injection of 0.004 mL 25% glucose/g body weight. One week after GTT, an ITT test was performed in same overnight fasted mice. They were injected with a single intraperitoneal insulin dose (1 mU of insulin/g body weight). Blood glucose was measured from mouse tails by One Touch Ultra glucometer (LifeScan, Wayne, PA).

In the case of “EREG: Epiregulin, member of the epidermal growth factor family; recombinant mouse or human protein”, the “metabolic rate at ambient temperature and after cold exposure” value (DIO mice; CLAMS) was “increase”, the “body temperature in the abdominal area” value (DIO mice; EREG 20 ng per depot every other day, 2 weeks, infrared camera) was “profound effects” and the weight gain (DIO mice; HF diet) was “prevented”. For the same substance, the “expression of PPARα target genes Mcat and Cpt2 in iAb fat” value (DIO mice; NanoString) was “increased”, the “expression of pro-inflammatory genes Tnfa and Mcp1 in iAb fat” value (DIO mice; NanoString) was “suppressed” and the “expression of thermogenic genes (Dio2, Pgc1a, Cidea, Rip140) and CoxIV in iAb fat” value (DIO mice; NanoString) was “significantly increased”. The “light and dark period activity” value (DIO mice; before and after cold exposure) was “did not influence”, the “Lep expression in iAb fat” value (DIO mice; between groups) was “similar” and the “levels of BAT marker Prdm16 in iAb fat” value (DIO mice; between groups) was “similar”. The food consumption (DIO mice; both groups) was “similar”, the “decrease of circulating triglyceride levels” value (DIO mice; compared to control group) was 48% and the “increase in Ucp1 and Pparg expression in iAb fat” value (DIO mice; mouse, in vivo) was “did not reach statistical significance”. For the same substance, the “less iAb fat than non-treated mice” value (DIO mice; mouse, in vivo) was 32%, the “liver, BAT and subcutaneous WAT weight” value (DIO mice; normalized to body weight) was “did not influence” and the “levels of secreted LEP, higher than in non-treated mice” value (DIO mice; plasma, ELISA) was 215%. The RER (DIO mice; treated vs non-treated) was “similar”, the “increase in non-esterified fatty acid in the circulation” value (DIO mice; vs control group) was 580% and the “time to maximal metabolic rate plateau during cold exposure” value (DIO mice; vs control group) was “significantly shorter”. For the same substance, the “RER during the light cycle” value (ob/ob mice; EREG-treated vs control) was “significantly lower”, the “activity after transition from ambient temperature to the cold” value (ob/ob mice; EREG-treated vs control) was “higher” and the weight gain (ob/ob mice; after 6 weeks of treatment with EREG) was “reduced”. For the same substance, the “expression of PPARα target genes and mitochondrial genes in iAb fat” value (ob/ob mice; between groups) was “similar”, the “metabolic rate before and during cold exposure” value (ob/ob mice; between groups) was “identical” and the “response to insulin (ITT)” value (ob/ob mice; between groups) was “similar”. The “glucose tolerance (GTT)” value (ob/ob mice; compared to non-treated group) was “markedly improved”, the “weight of BAT, WAT depot and liver” value (ob/ob mice; mouse, in vivo) was “not associated with significant changes” and the food intake (ob/ob mice; pair-fed HF diet) was “identical”.
